# “And” between values parts separate entries of the source, which are not always exact repeats. Equal values may be shown once.
# What was measured:
# Assay in all cases: Affinity-purification and mass spectrometry (AP-MS) chemical proteomics, all proteins;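 on Difference: 200 µM free competitor with 20 µM biotin probe overnight in lysate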
# Type in all cases: binding
# [1] = target: T1, proteins displaced from immobilized biotin-Cmpd 1 pulldowns (U2OS cell lysate) (Homo sapiens, UniProt O60832); conditions: GN=DKC1 (O60832)
# T1 construct: endogenous in cells; host or cells: U2OS
# T1 sequence (O60832 whole entry): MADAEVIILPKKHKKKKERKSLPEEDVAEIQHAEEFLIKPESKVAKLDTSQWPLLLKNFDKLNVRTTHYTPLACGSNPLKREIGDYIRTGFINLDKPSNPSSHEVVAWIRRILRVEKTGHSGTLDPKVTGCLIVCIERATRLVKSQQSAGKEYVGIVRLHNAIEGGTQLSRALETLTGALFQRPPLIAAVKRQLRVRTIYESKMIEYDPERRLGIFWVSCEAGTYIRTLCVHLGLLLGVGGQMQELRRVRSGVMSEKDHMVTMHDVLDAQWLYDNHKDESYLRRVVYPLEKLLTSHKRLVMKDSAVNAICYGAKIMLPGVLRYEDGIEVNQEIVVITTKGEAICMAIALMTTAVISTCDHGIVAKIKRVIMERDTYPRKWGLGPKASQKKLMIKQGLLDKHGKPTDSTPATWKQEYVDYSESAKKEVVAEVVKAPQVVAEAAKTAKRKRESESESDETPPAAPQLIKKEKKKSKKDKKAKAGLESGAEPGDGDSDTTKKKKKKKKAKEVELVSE
# [2] = target: T2, proteins displaced from immobilized biotin-Cmpd 1 pulldowns (U2OS cell lysate) (Homo sapiens, UniProt P05089); conditions: GN=ARG1 (P05089)
# T2 construct: endogenous in cells; host or cells: U2OS
# T2 sequence (P05089 whole entry): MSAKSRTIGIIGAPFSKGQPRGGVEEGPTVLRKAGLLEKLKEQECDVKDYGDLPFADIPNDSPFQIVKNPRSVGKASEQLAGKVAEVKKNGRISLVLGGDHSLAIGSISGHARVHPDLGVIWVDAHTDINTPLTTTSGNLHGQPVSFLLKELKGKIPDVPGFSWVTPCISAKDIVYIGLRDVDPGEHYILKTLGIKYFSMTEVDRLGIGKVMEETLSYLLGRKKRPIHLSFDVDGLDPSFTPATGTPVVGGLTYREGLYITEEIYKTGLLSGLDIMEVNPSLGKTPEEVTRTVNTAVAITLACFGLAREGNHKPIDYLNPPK
# [3] = target: T3, proteins displaced from immobilized biotin-Cmpd 1 pulldowns (U2OS cell lysate) (Homo sapiens, UniProt P27797); conditions: GN=CALR (P27797)
# T3 construct: endogenous in cells; host or cells: U2OS
# T3 sequence (P27797 18-417): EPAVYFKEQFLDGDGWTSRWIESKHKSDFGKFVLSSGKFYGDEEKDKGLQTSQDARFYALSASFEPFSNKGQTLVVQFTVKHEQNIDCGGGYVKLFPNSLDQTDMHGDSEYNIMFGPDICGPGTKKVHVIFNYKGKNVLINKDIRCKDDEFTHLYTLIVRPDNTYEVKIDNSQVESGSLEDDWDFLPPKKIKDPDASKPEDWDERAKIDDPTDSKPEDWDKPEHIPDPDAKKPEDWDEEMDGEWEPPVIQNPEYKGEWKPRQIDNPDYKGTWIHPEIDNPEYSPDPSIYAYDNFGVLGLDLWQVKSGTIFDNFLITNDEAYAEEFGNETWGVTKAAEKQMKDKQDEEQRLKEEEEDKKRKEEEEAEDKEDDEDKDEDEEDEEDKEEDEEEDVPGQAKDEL
# [4] = target: T4, proteins displaced from immobilized biotin-Cmpd 1 pulldowns (U2OS cell lysate) (Homo sapiens, UniProt P35606); conditions: GN=COPB2 (P35606)
# T4 construct: endogenous in cells; host or cells: U2OS
# T4 sequence (P35606 whole entry): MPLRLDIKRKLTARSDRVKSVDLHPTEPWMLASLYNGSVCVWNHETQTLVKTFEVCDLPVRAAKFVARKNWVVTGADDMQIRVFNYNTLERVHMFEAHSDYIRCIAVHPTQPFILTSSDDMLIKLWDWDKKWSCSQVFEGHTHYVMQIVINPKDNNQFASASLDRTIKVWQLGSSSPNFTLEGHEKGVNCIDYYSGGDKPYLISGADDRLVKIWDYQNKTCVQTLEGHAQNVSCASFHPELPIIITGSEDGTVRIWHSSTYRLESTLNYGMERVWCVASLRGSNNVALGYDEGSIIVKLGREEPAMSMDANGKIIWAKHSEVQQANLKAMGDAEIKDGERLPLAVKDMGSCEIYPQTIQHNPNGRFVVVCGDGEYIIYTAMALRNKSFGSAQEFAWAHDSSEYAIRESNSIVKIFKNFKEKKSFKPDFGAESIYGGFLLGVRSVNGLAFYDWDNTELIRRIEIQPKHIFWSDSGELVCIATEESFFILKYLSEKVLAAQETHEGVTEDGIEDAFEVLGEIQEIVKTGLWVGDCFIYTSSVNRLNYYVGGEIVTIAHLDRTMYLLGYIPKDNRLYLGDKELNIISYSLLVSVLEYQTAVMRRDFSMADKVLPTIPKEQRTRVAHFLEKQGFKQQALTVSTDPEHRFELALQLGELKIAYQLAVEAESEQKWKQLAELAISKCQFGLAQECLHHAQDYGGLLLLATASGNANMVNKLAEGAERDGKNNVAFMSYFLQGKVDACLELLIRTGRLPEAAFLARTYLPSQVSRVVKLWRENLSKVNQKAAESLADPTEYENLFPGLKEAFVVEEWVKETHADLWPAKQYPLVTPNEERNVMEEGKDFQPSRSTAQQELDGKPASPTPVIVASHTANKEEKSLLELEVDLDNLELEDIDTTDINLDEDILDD
# [5] = target: T5, proteins displaced from immobilized biotin-Cmpd 1 pulldowns (U2OS cell lysate) (Homo sapiens, UniProt P61313); conditions: GN=RPL15 (P61313)
# T5 construct: endogenous in cells; host or cells: U2OS
# [6] = target: T6, proteins displaced from immobilized biotin-Cmpd 1 pulldowns (U2OS cell lysate) (Homo sapiens, UniProt Q13765); conditions: GN=NACA (Q13765)
# T6 construct: endogenous in cells; host or cells: U2OS
# [7] = target: T7, proteins displaced from immobilized biotin-Cmpd 1 pulldowns (U2OS cell lysate) (Homo sapiens, UniProt Q96AG4); conditions: GN=LRRC59 (Q96AG4)
# T7 construct: endogenous in cells; host or cells: U2OS
# T7 sequence (Q96AG4 whole entry): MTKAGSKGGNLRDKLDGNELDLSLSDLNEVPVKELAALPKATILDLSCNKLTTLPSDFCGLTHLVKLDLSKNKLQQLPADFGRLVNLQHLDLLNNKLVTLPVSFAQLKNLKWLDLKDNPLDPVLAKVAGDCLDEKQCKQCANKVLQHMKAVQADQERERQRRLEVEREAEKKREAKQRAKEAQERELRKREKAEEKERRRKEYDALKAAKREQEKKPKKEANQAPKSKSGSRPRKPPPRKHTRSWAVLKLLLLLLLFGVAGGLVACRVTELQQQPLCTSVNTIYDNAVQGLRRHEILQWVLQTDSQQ
# [8] = target: T8, proteins displaced from immobilized biotin-Cmpd 1 pulldowns (U2OS cell lysate) (Homo sapiens, UniProt Q96DA0); conditions: GN=ZG16B (Q96DA0)
# T8 construct: endogenous in cells; host or cells: U2OS
# T8 sequence (Q96DA0 17-172): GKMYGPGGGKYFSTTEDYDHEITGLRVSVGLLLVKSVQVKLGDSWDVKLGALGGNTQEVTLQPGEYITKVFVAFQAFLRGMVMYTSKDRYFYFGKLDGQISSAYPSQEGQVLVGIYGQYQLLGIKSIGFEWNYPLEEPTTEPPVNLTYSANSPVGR
# [9] = target: T9, proteins displaced from immobilized biotin-Cmpd 1 pulldowns (U2OS cell lysate) (Homo sapiens, UniProt Q9BUF5); conditions: GN=TUBB6 (Q9BUF5)
# T9 construct: endogenous in cells; host or cells: U2OS
# T9 sequence (Q9BUF5 whole entry): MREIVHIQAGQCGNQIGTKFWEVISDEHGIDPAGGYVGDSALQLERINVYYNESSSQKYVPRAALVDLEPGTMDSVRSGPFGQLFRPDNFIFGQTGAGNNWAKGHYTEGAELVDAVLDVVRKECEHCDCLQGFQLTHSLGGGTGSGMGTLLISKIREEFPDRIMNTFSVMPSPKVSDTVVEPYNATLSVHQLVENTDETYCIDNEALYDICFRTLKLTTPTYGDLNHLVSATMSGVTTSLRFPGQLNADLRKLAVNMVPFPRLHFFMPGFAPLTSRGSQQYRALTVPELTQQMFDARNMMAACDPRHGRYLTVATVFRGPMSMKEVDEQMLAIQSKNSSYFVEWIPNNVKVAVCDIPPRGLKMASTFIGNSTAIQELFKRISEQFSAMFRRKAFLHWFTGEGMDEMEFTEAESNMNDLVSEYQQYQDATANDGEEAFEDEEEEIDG
# [10] = target: T10, proteins displaced from immobilized biotin-Cmpd 1 pulldowns (U2OS cell lysate) (Homo sapiens, UniProt Q9UH17); conditions: GN=APOBEC3B (Q9UH17)
# T10 construct: endogenous in cells; host or cells: U2OS
# T10 sequence (Q9UH17 whole entry): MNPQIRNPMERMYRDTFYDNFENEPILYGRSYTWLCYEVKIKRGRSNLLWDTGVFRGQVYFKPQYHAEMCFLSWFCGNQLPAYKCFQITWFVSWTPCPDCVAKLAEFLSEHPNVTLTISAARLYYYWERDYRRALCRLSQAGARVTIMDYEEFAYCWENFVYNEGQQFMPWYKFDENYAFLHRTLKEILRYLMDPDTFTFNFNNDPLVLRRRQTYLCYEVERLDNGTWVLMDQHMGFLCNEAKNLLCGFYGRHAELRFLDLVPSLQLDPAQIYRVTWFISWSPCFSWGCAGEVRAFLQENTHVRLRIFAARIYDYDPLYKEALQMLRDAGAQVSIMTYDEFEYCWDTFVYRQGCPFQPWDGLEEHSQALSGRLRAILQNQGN
compound,measurement,setting,value
"Cn1c2c(c(=N)c3c1CCC3)CCC2 [Compound 1, 4-methyl-2,3,4,5,6,7-hexahydrodicyclopenta[b,e]pyridin-8(1H)-imine]",Difference,"[1]; Cmpd minus DMSO, -LOG(P-value) 0.760368",0.5453
same,iBAQ Cmpd,[1]; replicates 1-3,19.0033 and 19.8581 and 19.0089
same,Difference,"[2]; Cmpd minus DMSO, -LOG(P-value) 0.796604",-1.277
same,iBAQ Cmpd,[2]; replicates 1-3,21.3858 and 21.3863 and 20.4096
same,Difference,"[3]; Cmpd minus DMSO, -LOG(P-value) 1.31392",3.089
same,iBAQ Cmpd,[3]; replicates 1-3,19.5486 and 19.2952 and 16.8093
same,Difference,"[4]; Cmpd minus DMSO, -LOG(P-value) 1.0232",1.032
same,iBAQ Cmpd,[4]; replicates 1-3,16.3801 and 15.3301 and 15.6123
same,Difference,"[5]; Cmpd minus DMSO, -LOG(P-value) 0.777225",-0.7361
same,iBAQ Cmpd,[5]; replicates 1-3,21.3956 and 22.1107 and 21.8582
same,Difference,"[6]; Cmpd minus DMSO, -LOG(P-value) 0.904761",3.386
same,iBAQ Cmpd,[6]; replicates 1-3,21.59 and 20.9827 and 19.5819
same,Difference,"[7]; Cmpd minus DMSO, -LOG(P-value) 0.840063",-2.23
same,iBAQ Cmpd,[7]; replicates 1-3,17.7382 and 14.7804 and 13.8761
same,Difference,"[8]; Cmpd minus DMSO, -LOG(P-value) 1.41535",-4.273
same,iBAQ Cmpd,[8]; replicates 1-3,15.4223 and 14.7351 and 17.7658
same,Difference,"[9]; Cmpd minus DMSO, -LOG(P-value) 2.60513",3.82
same,iBAQ Cmpd,[9]; replicates 1-3,19.1705 and 17.8309 and 17.4529
same,Difference,"[10]; Cmpd minus DMSO, -LOG(P-value) 0.938202",-0.8112
same,iBAQ Cmpd,[10]; replicates 1-3,21.4277 and 21.5751 and 21.8529

# — paper PMC9481570, “A small molecule antagonist of SMN disrupts the interaction between SMN and RNAP II” (Nature Communications, 2022)
